Experiments:
[1] = test system: spontaneous locomotor activity (SLMA); assay: Spontaneous locomotor activity (SLMA) in rats; format: in vivo, Male Sprague-Dawley rats; conditions: rat; for SLMA, Mean centimeters traveled in 1 hour±SEM: 60-minute absorption period, recorded 1 hour, vehicle 4066±297
From the text: Effects of 7-[4-(4-naphthalen-1-yl-piperazin-1-yl)-butoxy]-3,4-dihydro-1H-[1,8]naphthyridin-2-one on spontaneous locomotors activity (SLMA) was investigated in an in vivo animal model, which is predictive of antipsychotic efficacy.
Method: Male Sprague-Dawley rats were used in studies where SLMA was quantified using an activity monitor in a sound-attenuated chamber. Rats were randomly assigned to various groups (including a vehicle control group). 7-[4-(4naphthalen-1-yl-piperazin-1-yl)-butoxy]-3,4-dihydro-1H-[1,8]naphthyridin-2-one at doses of 0.1 mg/kg, 0.3 mg/kg, 1 mg/kg, 3 mg/kg, and 10 mg/kg, or vehicle were administered orally. Following a 60-minute absorption period, each rat was placed into the test chamber, and SLMA was recorded for a 1-hour time-period. SLMA is expressed as centimeters traveled. Statistical analysis was performed using a one-way ANOVA followed by a post hoc Dunnett's test.

dopamine D2 receptor = dopamine D2 receptor (Homo sapiens, UniProt P14416); conditions: background statement, compound of WO2005/019215; cited from earlier work
Sequence of dopamine D2 receptor (P14416 whole entry, species assumed): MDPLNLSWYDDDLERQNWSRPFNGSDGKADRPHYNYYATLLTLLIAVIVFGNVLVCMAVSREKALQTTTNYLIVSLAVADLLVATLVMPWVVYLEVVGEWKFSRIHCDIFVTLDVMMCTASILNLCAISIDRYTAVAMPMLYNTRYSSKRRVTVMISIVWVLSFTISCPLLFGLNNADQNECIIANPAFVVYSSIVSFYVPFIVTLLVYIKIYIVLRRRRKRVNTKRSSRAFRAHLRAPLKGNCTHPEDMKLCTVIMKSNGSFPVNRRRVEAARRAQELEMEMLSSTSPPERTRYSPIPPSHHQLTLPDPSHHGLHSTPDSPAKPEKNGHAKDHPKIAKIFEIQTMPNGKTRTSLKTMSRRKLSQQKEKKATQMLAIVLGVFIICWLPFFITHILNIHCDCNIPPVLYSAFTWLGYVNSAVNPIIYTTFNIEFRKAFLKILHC

D2 receptors = D2 receptors (Homo sapiens, UniProt P14416); conditions: background statement, compound of WO2005/019215; cited from earlier work
Sequence of D2 receptors (P14416 whole entry, species assumed): as above

[2] = Solid-state stability study, open dish; format: physicochemical; conditions: for solid-state stability (degradation): open dish, 6 month
[3] = Conversion of crystalline form on standing; format: physicochemical; conditions: ambient temperatures

O=C1CCc2ccc(OCCCCN3CCN(c4cccc5ccccc45)CC3)nc2N1 [7-[4-(4-naphthalen-1-yl-piperazin-1-yl)-butoxy]-3,4-dihydro-1H-[1,8]naphthyridin-2-one]
SLMA, Mean centimeters traveled in 1 hour±SEM ([1]; 0.1 mg/kg orally, not statistically different from vehicle): 3998±133 centimeters | SLMA, Mean centimeters traveled in 1 hour±SEM ([1]; 0.3 mg/kg orally, p<0.05 vs vehicle): 2510±185 centimeters | SLMA, Mean centimeters traveled in 1 hour±SEM ([1]; 1 mg/kg orally, p<0.05 vs vehicle): 1977±173 centimeters | SLMA, Mean centimeters traveled in 1 hour±SEM ([1]; 3 mg/kg orally, p<0.05 vs vehicle): 1742±206 centimeters | SLMA, Mean centimeters traveled in 1 hour±SEM ([1]; 10 mg/kg orally, p<0.05 vs vehicle): 1068±208 centimeters | effect on SLMA (in words) ([1]; oral, 0.1-10 mg/kg): dose-dependent reduction | minimum effective dose (reduction of SLMA) ([1]; oral, estimated): 0.3 mg/kg | binding to the dopamine D2 receptor (in words) (dopamine D2 receptor): binds | activity at D2 receptors (in words) (D2 receptors): partial agonist

O=C1CCc2ccc(OCCCCN3CCN(c4cccc5ccccc45)CC3)nc2N1.O=P(O)(O)O [Form A, 7-[4-(4-naphthalen-1-yl-piperazin-1-yl)-butoxy]-3,4-dihydro-1H-[1,8]naphthyridin-2-one mono-phosphate]
solid-state stability (degradation) ([2]; 25° C./60% relative humidity): little or no degradation | solid-state stability (degradation) ([2]; 30° C./70% relative humidity): little or no degradation | solid-state stability (degradation) ([2]; 40° C./75% relative humidity): little or no degradation | relative stability of crystalline forms ([2]; Form A compared with Form B): more stable than Form B

O=C1CCc2ccc(OCCCCN3CCN(c4cccc5ccccc45)CC3)nc2N1.O=P(O)(O)O [Form B, 7-[4-(4-naphthalen-1-yl-piperazin-1-yl)-butoxy]-3,4-dihydro-1H-[1,8]naphthyridin-2-one mono-phosphate]
form conversion on standing [3]: convert to Form A

Reference: patent US20080269242A1, “Crystalline Salts of 7-[4-(4-Naphthalen-1-Yl-Piperazin-1-Yl)-Butoxy]-3,4-Dihydro-1H-[1,8]Naphthyridine-2-One” (priority 2005, published 2008)
